Results as given in patent US12110289B2, “Heterocyclic compounds, preparation methods and uses thereof” (InventisBio Co., Ltd., priority 2020, dated 2024).
Like-named read-outs stand apart in the source and are kept apart here.

Legend:
[1] = test system: Lung cancer cell line NCI-H358 containing KRas G12C mutation; experiment: Assay for cell proliferation (Cell-titer Glo, 5 days); format: cell-based, human; conditions: NCI-H358, 5 days, Cell-titer Glo, read-out: IC50 (nM), Inhibition of NCI-H358 Cell Proliferation
Outline: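 NCI-H358 (KRas G12C) cells, 2000 per well, attached overnight at 37 °C, 5% CO2, then treated with compound for 5 days at 0.5% DMSO final. Proliferation measured by CellTiter-Glo luminescence after 10 min at RT.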

[2] = Human hepatocyte clearance study; format: in vitro ADME; conditions: human, pooled cryopreserved human hepatocytes (suspension), working cell density 0.5 × 10^6 viable cells/mL; for hepatocyte CLint at 1 µM: read-out: Human In vitro Clint (μl/min/10^6 cells); for half-life at 1 µM: read-out: Human In vitro T1/2; for CLint scaled at 1 µM: scaling factor 2544.3, read-out: Human Scale-up Clint
Description: (§1) The in vitro human hepatocyte clearance of compounds described here was studied using pooled human hepatocytes purchased from BioreclamationIVT (Westbury, NY, Cat #X008001, Lot #TQJ). The assay was conducted according to manufacturer's instruction. Briefly, 10 mM stock solutions of test compounds and positive control (Verapamil) were prepared in 100% DMSO. Thawing media (50 mL) used in the study consists of 31 mL Williams E medium (GIBCO Cat #12551-032), 15 mL isotonic percoll (GE Healthcare Cat #17-0891-09), 500 uL 100× GlutaMax (GIBCO Cat #35050), 750 uL HEPES (GIBCO Cat #15630-080), 2.5 mL FBS (Corning Cat #35-076-CVR), 50 uL human insulin (GIBCO Cat #12585-014) and 5 uL dexamethasone (NICPBP). Incubation media is made of Williams E medium supplemented with 1× GlutaMax. Both thawing medium and incubation medium (serum-free) were placed in a 37° C. water bath for at least 15 minutes prior to use. Compound stock solutions were diluted to 100 μM by combining 198 μL of 50% acetonitrile/50% water and 2 μL of 10 mM stock solution. Verapamil was use as positive control in the assay. Vials of cryopreserved hepatocytes were removed from storage and thawed in a 37° C. water bath with gentle shaking. Contents of the vial were poured into the 50 mL thawing medium conical tube. Vials were centrifuged at 100 g for 10 minutes at room temperature. […] […] […] The boiled hepatocytes were used to prepare negative samples. Aliquots of 198 μL hepatocytes were dispensed into each well of a 96-well non-coated plate. The plate was placed in the incubator on an orbital shaker at 500 rpm for approximately 10 minutes. Aliquots of 2 μL of the 100 μM test compound or positive control were added into respective wells of the non-coated 96-well plate to start the reaction. This assay was performed in duplicate. The plate was incubated in the incubator on an orbital shaker at 500 rpm for the designated time points. Twenty-five microliter of contents were transferred and mixed with 6 volumes (150 μL) of cold acetonitrile with IS (200 nM imipramine, 200 nM labetalol and 200 nM diclofenac) to terminate the reaction at time points of 0, 15, 30, 60, 90 and 120 minutes. Samples were centrifuged at 3,220 g for 25 minutes and aliquots of 150 μL of the supernatants were used for LC-MS/MS analysis. For data analysis, all calculations were carried out using Microsoft Excel. Peak areas were determined from extracted ion chromatograms. The in vitro half-life (t1/2) of parent compound was determined by regression analysis of the percent parent disappearance vs. time curve. […] Scaling factors for in vivo intrinsic clearance prediction using human hepatocytes are listed as: liver weight (g liver/kg body weight): 25.7; hepatocyte concentration (10^6 cells/g liver): 99; scaling factor: 2544.3.

[3] = test system: pooled human hepatocytes; experiment: Human hepatocyte clearance study; format: in vitro ADME; conditions: working cell density 0.5 × 10^6 viable cells/mL
Description: as §1

IC50 ([1]; Homo sapiens, NCI-H358, 120 h) | IC50 [1] | Structure (SMILES) | hepatocyte CLint at 1 µM [2] | half-life at 1 µM [2] | CLint scaled at 1 µM [2] | Human Hepatocyte Remaining Percentage @ 120 min (%) [3] | Human In vitro T1/2 (min) [3]
7.6 nM | – | C=CC(=O)N1CCN(c2nc(=O)n(-c3c(C(C)C)nc(OCCN(C)C)nc3C(C)C)c3nc(-c4c(O)cccc4F)c(Cl)cc23)[C@@H](C)C1 [Compound 22] | 2.9 µL/min/1e6 cells | 7.87 h | 7.5 mL/min/kg | 83.3% | –
6.9 nM | – | C=CC(=O)N1CCN(c2nc(=O)n(-c3c(C(C)C)nc(OCCN(C)C)nc3C(C)C)c3nc(-c4c(N)cccc4F)c(Cl)cc23)[C@@H](C)C1 [Compound 23] | 2.5 µL/min/1e6 cells | 9.23 h | 6.4 mL/min/kg | 82.4% | –
9.1 nM | – | C=CC(=O)N1C[C@H](C)N(c2nc(=O)n(-c3c(C(C)C)nc(OCCN(C)C)nc3C(C)C)c3nc(-c4ccccc4F)c(Cl)cc23)C[C@H]1C [Compound 24] | 5.9 µL/min/1e6 cells | 3.9 h | 15.1 mL/min/kg | 70.1% | –
1.5 nM | – | C=CC(=O)N1C[C@H](C)N(c2nc(=O)n(-c3c(F)cc4c(ncn4C)c3C(C)C)c3nc(-c4c(O)cccc4F)c(Cl)cc23)C[C@H]1C [Compound 166] | – | – | – | – | –
– | 44.4 nM | C=CC(=O)N1C[C@H](C)N(c2nc(=O)n(-c3c(C(C)C)nc4c(ncn4C)c3C)c3nc(-c4ccccc4F)c(Cl)cc23)C[C@H]1C [Compound 181] | – | – | – | – | –

The next lines start with the compound.

Structure (SMILES) | IC50 ([1]; Homo sapiens, NCI-H358, 120 h) | IC50 [1] | hepatocyte CLint at 1 µM [2] | half-life at 1 µM [2] | CLint scaled at 1 µM [2] | Human Hepatocyte Remaining Percentage @ 120 min (%) [3] | Human In vitro T1/2 (min) [3]
C=CC(=O)N1CCN(c2nc(=O)n(-c3c(C4CC4)ncnc3C3CC3)c3nc(-c4ccccc4F)c(Cl)cc23)[C@@H](C)C1 [Compound 1] | 10 nM | – | 20.8 µL/min/1e6 cells | 1.11 h | 53 mL/min/kg | 27.9% | –
C=CC(=O)N1CCN(c2nc(=O)n(-c3c(C(C)C)nc(N)nc3C(C)C)c3nc(-c4ccccc4F)c(Cl)cc23)[C@@H](C)C1 [Compound 6] | 4.9 nM | – | 19.3 µL/min/1e6 cells | 1.2 h | 49.2 mL/min/kg | 33.4% | –
C=CC(=O)N1CCN(c2nc(=O)n(-c3c(C(C)C)nc(OC)nc3C(C)C)c3nc(-c4ccccc4F)c(Cl)cc23)[C@@H](C)C1 [Compound 8] | 11.2 nM | – | 63.8 µL/min/1e6 cells | 0.362 h | 162 mL/min/kg | 2.1% | –
C=CC(=O)N1CCN(c2nc(=O)n(-c3c(C(C)C)nc(C)nc3C(C)C)c3nc(-c4ccccc4F)c(Cl)cc23)[C@@H](C)C1 [Compound 9] | 4.1 nM | – | 27.6 µL/min/1e6 cells | 0.837 h | 70.2 mL/min/kg | 18.6% | –
C=CC(=O)N1CCN(c2nc(=O)n(-c3c(C(C)C)nc(OCCN(C)C)nc3C(C)C)c3nc(-c4ccccc4F)c(Cl)cc23)[C@@H](C)C1 [Compound 13] | 6.5 nM | – | – | – | – | 103% | ∞^b
C=CC(=O)N1CCN(c2nc(=O)n(-c3c(C(C)C)nc(N4CCNCC4)nc3C(C)C)c3nc(-c4ccccc4F)c(Cl)cc23)[C@@H](C)C1 [Compound 14] | 8.8 nM | – | 4.5 µL/min/1e6 cells | 5.1 h | 11.5 mL/min/kg | 75.7% | –
C=CC(=O)N1CCN(c2nc(=O)n(-c3c(C4CC4)nc(OCCN(C)C)nc3C3CC3)c3nc(-c4ccccc4F)c(Cl)cc23)[C@@H](C)C1 [Compound 20] | 6.7 nM | – | 5.1 µL/min/1e6 cells | 4.57 h | 12.9 mL/min/kg | 74.3% | –
C=CC(=O)N1CCN(c2nc(=O)n(-c3c(C4CC4)nc(OCCN(C)C)nc3C3CC3)c3nc(-c4ccccc4F)c(F)cc23)[C@@H](C)C1 [Compound 21] | 29.9 nM | – | 1.8 µL/min/1e6 cells | 13.1 h | 4.5 mL/min/kg | 90.6% | –
